Results: patent publication EP0255256A2, “Antibiotics produced by actinomadura parvosata” (SMITHKLINE BECKMAN CORPORATION, priority 1986, dated 1988)
Where two headings read alike, the source gives them in different places.

What was measured:
[1] = tested on: Staph. aureus 910; experiment: MIC, standard microtiter assay; assay type: cell-based
Method: (§1) The in vitro minimal inhibitory concentration (MIC) of the AAJ-271 complex and its factors, and vancomycin were determined for a number of microorganisms using the standard microtite'r assay procedures. The results are shown in the following tables, each of which represents a different production run of the complex.
(§2) The in vitro minimal inhibitory concentration (MIC) and the in vitro minimal bactericidal concentration (MBC) of the AAJ-271 aglycones, pseudo-aglycone and vancomycin were determined for a number of microorganisms using the standard microtiter assay procedures.

[2] = tested on: Staph. epidermidis 2265; experiment: MIC, standard microtiter assay; assay type: cell-based; conditions: Staphylococcus epidermidis, 2265, read-out: MIC in μg/ml, Staph. epidermidis 2265
Method: as §1, §2

[3] = tested on: Staph. epidermidis 2588; experiment: MIC, standard microtiter assay; assay type: cell-based; conditions: Staphylococcus epidermidis, 2588, read-out: MIC in μg/ml, Staph. epidermidis 2588
Method: as §1, §2

[4] = tested on: Staph. aureus 675; experiment: MIC, standard microtiter assay; assay type: cell-based; conditions: Staphylococcus aureus, 675, read-out: MIC in μg/ml, Staph. aureus 675
Method: as §1, §2

[5] = tested on: Staph. aureus HH127; experiment: MIC, standard microtiter assay; assay type: cell-based; conditions: Staphylococcus aureus, HH127, read-out: MIC in μg/ml, Staph. aureus HH127
Method: as §1, §2

[6] = tested on: Strep. faecalis 657; experiment: MIC, standard microtiter assay; assay type: cell-based; conditions: Enterococcus faecalis, 657, read-out: MIC in μg/ml, Strep. faecalis 657
Method: as §1, §2

[7] = tested on: Staph. epidermidis 2256; experiment: MIC, standard microtiter assay; assay type: cell-based; conditions: Staphylococcus epidermidis, 2256, read-out: MIC in μg/ml, Staph. epidermidis 2256
Method: as §1, §2

[8] = tested on: Staph. aureus 2620; experiment: MIC, standard microtiter assay; assay type: cell-based; conditions: Staphylococcus aureus, 2620, read-out: MIC in μg/ml, Staph. aureus 2620
Method: as §1, §2

[9] = tested on: Strep. faecalis 34358; experiment: MIC, standard microtiter assay; assay type: cell-based; conditions: Enterococcus faecalis, 34358, read-out: MIC in μg/ml, Strep. faecalis 34358
Method: as §1, §2

[10] = tested on: Staph. aureus 209P; experiment: MIC, standard microtiter assay; assay type: cell-based; conditions: Staphylococcus aureus, 209P, read-out: MIC in μg/ml, Staph. aureus 209P
Method: as §1, §2

[11] = tested on: Staph. epidermidis 2479; experiment: MIC, standard microtiter assay; assay type: cell-based; conditions: Staphylococcus epidermidis, 2479, read-out: MIC in μg/ml, Staph. epidermidis 2479
Method: as §1, §2

[12] = tested on: Staph. epidermidis 2265; experiment: MBC, standard assay procedures; assay type: cell-based
Method: (§3) The in vitro minimal bactericidal concentration (MBC) of the AAJ-271 C, C2 and C3 factors and vancomycin were determined for a number of microorganisms using standard assay procedures.
as §2

[13] = tested on: Staph. aureus 675; experiment: MBC, standard assay procedures; assay type: cell-based
Method: as §3, §2

[14] = tested on: Staph. aureus HH127; experiment: MBC, standard assay procedures; assay type: cell-based; conditions: Staphylococcus aureus
Method: as §3, §2

[15] = tested on: Strep. faecalis 657; experiment: MBC, standard assay procedures; assay type: cell-based
Method: as §3, §2

[16] = tested on: Staph. aureus 2620; experiment: MBC, standard assay procedures; assay type: cell-based
Method: as §3, §2

[17] = tested on: Staph. haemolyticus 651; experiment: MBC, standard assay procedures; assay type: cell-based
Method: as §3, §2

[18] = tested on: Strep. faecalis 34358; experiment: MBC, standard assay procedures; assay type: cell-based
Method: as §3, §2

[19] = tested on: Staph. epidermidis 2479; experiment: MBC, standard assay procedures; assay type: cell-based
Method: as §3, §2

[20] = tested on: Strep. faecalis 34358; experiment: Mouse protection assay; assay type: in vivo
[21] = tested on: Staph. aureus HH127; experiment: Mouse protection assay; assay type: in vivo; conditions: Staphylococcus aureus
[22] = tested on: Staph. aureus 2630; experiment: Mouse protection assay; assay type: in vivo; conditions: Staphylococcus aureus, 2630, 1 h

CN[C@H](CC(C)C)C(=O)N[C@H]1C(=O)N[C@@H](CC(N)=O)C(=O)N[C@H]2C(=O)N[C@H]3C(=O)N[C@H](C(=O)N[C@H](C(=O)O)c4cc(O)cc(O)c4-c4cc3ccc4O)[C@H](O)c3ccc(c(Cl)c3)Oc3cc2cc(c3O[C@@H]2O[C@H](CO)[C@@H](O)[C@H](O)[C@H]2O[C@H]2C[C@](C)(N)[C@H](O)[C@H](C)O2)Oc2ccc(cc2Cl)[C@H]1O [Vancomycin, vancomycin]
2.8 mg/kg: ED50 ([21]; HH127, iv, 1 h)
0.8 µg/mL: MIC ([10]; Table VIII)
50 µg/mL: MBC ([18]; Enterococcus faecalis, 34358, read-out: MBC in μg/ml, Strep. faecalis 34358, Table VIII)
6.3 µg/mL: MIC ([2]; Table II) | MIC ([2]; Table IX) | MIC ([3]; Table VIII) | MIC ([9]; Table II) | MIC ([9]; Table IX) | MIC ([11]; Table II) | MIC ([11]; Table IX) | MBC ([12]; Staphylococcus epidermidis, 2265, read-out: MBC in μg/ml, Staph. epidermidis 2265, Table IX) | MBC ([12]; Staphylococcus epidermidis, IIIB, read-out: MBC in μg/ml, Staph. epidermidis 2265, Table IIIB) | MBC ([13]; Staphylococcus aureus, 675, read-out: MBC in μg/ml, Staph. aureus 675, Table IX) | MBC ([13]; Staphylococcus aureus, IIIB, read-out: MBC in μg/ml, Staph. aureus 675, Table IIIB) | MBC ([15]; Enterococcus faecalis, 657, read-out: MBC in μg/ml, Strep. faecalis 657, Table IX) | MBC ([15]; Enterococcus faecalis, IIIB, read-out: MBC in μg/ml, Strep. faecalis 657, Table IIIB) | MBC ([19]; Staph. epidermidis 2479, Table IX) | MBC ([19]; Staphylococcus epidermidis, 2479, read-out: MBC in μg/ml) | MBC ([19]; Staphylococcus epidermidis, IIIB, read-out: MBC in μg/ml)
12.5 µg/mL: MBC ([17]; Staphylococcus haemolyticus, 651, read-out: MBC in μg/ml, Staph. haemolyticus 651, Table IX) | MBC ([17]; Staphylococcus haemolyticus, IIIB, read-out: MBC in μg/ml, Staph. haemolyticus 651, Table IIIB) | MBC ([18]; Enterococcus faecalis, 34358, read-out: MBC in μg/ml, Strep. faecalis 34358, Table IX) | MBC ([18]; Enterococcus faecalis, read-out: MBC in μg/ml, Strep. faecalis 34358, Table)
3.1 µg/mL: MIC ([2]; Table VIII) | MIC ([4]; Table II) | MIC ([4]; Table IX) | MIC ([4]; Table VIII) | MIC ([5]; Table II) | MIC ([5]; Table IX) | MIC ([6]; Table II) | MIC ([6]; Table IX) | MIC ([6]; Table VIII) | MIC ([7]; Table VIII) | MIC ([8]; Table II) | MIC ([8]; Table IX) | MIC ([9]; Table VIII) | MIC ([11]; Table VIII) | MBC ([12]; Staphylococcus epidermidis, 2265, read-out: MBC in μg/ml, Staph. epidermidis 2265, Table VIII) | MBC ([13]; Staphylococcus aureus, 675, read-out: MBC in μg/ml, Staph. aureus 675, Table VIII) | MBC ([14]; HH127, read-out: MBC in μg/ml, Staph. aureus HH127, Table IX) | MBC ([14]; IIIB, read-out: MBC in μg/ml, Staph. aureus HH127, Table IIIB) | MBC ([15]; Enterococcus faecalis, 657, read-out: MBC in μg/ml, Strep. faecalis 657, Table VIII) | MBC ([16]; Staphylococcus aureus, 2620, read-out: MBC in μg/ml, Staph. aureus 2620, Table IX) | MBC ([16]; Staphylococcus aureus, IIIB, read-out: MBC in μg/ml, Staph. aureus 2620, Table IIIB) | MBC ([17]; Staphylococcus haemolyticus, 651, read-out: MBC in μg/ml, Staph. haemolyticus 651, Table VIII)
1.6 µg/mL: MIC ([1]; Staph. aureus 910, Table VIII) | MIC ([1]; Staphylococcus aureus, 910, read-out: MIC in μg/ml) | MIC ([2]; Table I) | MIC ([3]; Table I) | MIC ([4]; Table I) | MIC ([5]; Table I) | MIC ([5]; Table VIII) | MIC ([6]; Table I) | MIC ([7]; Table I) | MIC ([8]; Table I) | MIC ([8]; Table VIII) | MIC ([9]; Table I) | MIC ([10]; Table I) | MIC ([11]; Table I) | MBC ([14]; HH127, read-out: MBC in μg/ml, Staph. aureus HH127, Table VIII) | MBC ([16]; Staphylococcus aureus, 2620, read-out: MBC in μg/ml, Staph. aureus 2620, Table VIII)
0.26 mg/kg: ED50 ([21]; HH127, 1 h)
0.78 mg/kg: ED50 [22]
1.3 mg/kg: ED50 ([20]; Enterococcus faecalis, 34358, iv, 1 h)
1.25 mg/kg: ED50 ([20]; Enterococcus faecalis, 34358, 1 h)
